The results in this text go back to article PMC8153708, “Inhibition of soluble epoxide hydrolase by phytochemical constituents of the root bark of Ulmus davidiana var. japonica” (Journal of Enzyme Inhibition and Medicinal Chemistry, 2021).

This experiment deals with T1, soluble epoxide hydrolase (sEH) (Homo sapiens, UniProt P34913).
T1 construct: purchased Cayman 10011669
T1 sequence (P34913 1-555): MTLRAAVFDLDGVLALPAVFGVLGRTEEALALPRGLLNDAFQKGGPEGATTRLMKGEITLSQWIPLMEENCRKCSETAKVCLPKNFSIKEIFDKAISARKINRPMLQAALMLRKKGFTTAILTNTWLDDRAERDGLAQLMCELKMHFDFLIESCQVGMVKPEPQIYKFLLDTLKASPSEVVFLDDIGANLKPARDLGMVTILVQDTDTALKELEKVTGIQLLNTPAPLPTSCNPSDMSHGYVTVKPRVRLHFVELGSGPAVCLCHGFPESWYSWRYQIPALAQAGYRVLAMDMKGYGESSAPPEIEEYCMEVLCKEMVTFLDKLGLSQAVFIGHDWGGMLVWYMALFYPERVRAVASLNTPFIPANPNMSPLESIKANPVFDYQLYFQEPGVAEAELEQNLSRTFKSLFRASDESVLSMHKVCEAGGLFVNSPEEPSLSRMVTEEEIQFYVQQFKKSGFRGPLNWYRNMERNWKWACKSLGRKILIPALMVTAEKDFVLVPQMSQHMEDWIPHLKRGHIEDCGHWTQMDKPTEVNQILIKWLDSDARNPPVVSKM
As to the kind of experiment: sEH inhibition assay (PHOME fluorescent substrate). Format: biochemical. The settings on record: 37 °C, mean ± SEM; for inhibition at 100 µM: 100 μM compound, after 40 min, read-out: Inhibition of compounds on sEH, 100 μM (%); for IC50: tested three times, read-out: Inhibition of compounds on sEH, IC50. On the procedure:
The sEH assay was performed as described previously, with minor modifications. For determining inhibitory activity, 130 µL of ∼83 µg/mL sEH in 25 mM bis-Tris–HCl buffer (pH 7.0) containing 0.1% BSA was added to either 20 µL of inhibitor dissolved in MeOH, or MeOH. Next, 50 µL of the 10 µM substrate (PHOME) was added to each mixture and incubated at 37 °C to allow for sEH hydrolysis.
Inhibitory activity was calculated using the following equations: (1) Inhibitoryactivityrate(%)=[(ΔC–ΔI)/ΔC]×100 where ΔC and ΔI are the intensity of the control and inhibitor, respectively, after 40 min. (2) y=y0+(a×x/b+x) where y0 is the minimum value of the y-axis, a is the difference between the maximum and minimum values, and b is the x value at 50% of the a value.
The results were analysed using Sigma Plot (Systat Software Inc., San Jose, CS).

In the case of `OCC1(O)COC(Oc2cc(O)c3c(c2)OC(c2ccc(O)c(O)c2)C(O)C3)C1O` (stereo not drawn) [Compound 6, catechin-7-O-β-apiofuranoside], the inhibition at 100 µM was found to be 69.8 ± 2.2% and the IC50 was 16 ± 3.2 µM. Regarding `O=C1CC(c2ccc(O)cc2)Oc2cc(O)c(C3OC(CO)C(O)C(O)C3O)c(O)c21` [Compound 3, naringenin-6-C-β-D-glucopyranoside], the inhibition at 100 µM is less than 38%. With `O=C1c2c(O)cc(O)cc2OC(c2cc(O)cc(O)c2)C1O` (centres unmarked) [Compound 10, 3,5,7-trihydroxy-2–(3,5-dihydroxyphenyl) chroman-4-one], the inhibition at 100 µM was determined as 70.7 ± 0.4% and the IC50 was 16.1 ± 3.2 µM. Taken in the same sequence, the figures for `COc1cc(C2Oc3c(OC)cc(CCCO)cc3C2CO)ccc1OC1OC(C)C(O)C(O)C1O` (centres unmarked) [Compound 7, icariside E4] were 55.6 ± 0.7% and 23 ± 0.7 µM.

Consider `O=C1CC(c2ccccc2)Oc2cc(O)c(C3OC(CO)C(O)C(O)C3O)c(O)c21` [Compound 2, pinocembrin 6-C-β-D-glucoside], for which the inhibition at 100 µM amounted to 91.8 ± 4.5% and the IC50 stood at 11.4 ± 2.3 µM. Turning to `Oc1cc(O)c2c(c1)O[C@H](c1ccc(O)c(O)c1)[C@@H](O)C2` [Compound 5, (+)-catechin], the inhibition at 100 µM was less than 38%.

`COc1cc(C2Oc3c(OC)cc(CCCO)cc3C2CO[C@@H]2OC[C@@H](O)[C@H](O)[C@H]2O)ccc1O` (stereo partly drawn) [Compound 8, 2,3-dihydro-2–(4-hydroxy-3-methoxyphenyl)-5–(3-hydroxypropyl)-7-methoxy-3-benzofuranylmethyl β-D-xylopyranoside]: the inhibition at 100 µM is 64.8 ± 1.4% and the IC50 amounted to 36.9 ± 2.6 µM. Taken in the same sequence, the figures for `OCc1ccc(O)cn1` [Compound 4, 6-hydroxymethyl-3-pyridinol] were 65.9 ± 0.8% and 26.3 ± 4.5 µM.

As to `O=C(O)c1ccc(O)c(O)c1` [Compound 9, protocatechuic acid], the inhibition at 100 µM is less than 38%.

On to `O=C1OC2Cc3c(O)cc(OC4OCC(O)(CO)C4O)cc3OC2c2ccc(O)c(O)c21` [Compound 1, (6aS,12aR)-3,4,8-trihydroxy-6a-7-dihydroisochromeno[4,3-b]chromen-5(12aH)-one-10-O-β-apiofuranoside], for which the inhibition at 100 µM was 59.4 ± 2.5% and the IC50 came out at 14.5 ± 0.5 µM.
